One data set relates to Coturnix coturnix. Conditions: oral.
For a further data set, the system named is Daphnia magna. As to conditions: chronic/long-term.
The subject of a further data set is Canidae. As to conditions: subchronic; duration: 90 days; oral; Dog Other; clinical signs.
Another data set has as its system Apis mellifera. As to conditions: acute, mortality.
For the next data set, the system named is Oryctolagus sp. Conditions: developmental; development.
The subject of a further data set is Oncorhynchus mykiss. As to conditions: for NOEC: chronic/long-term.
Another data set has as its system Aphidius rhopalosiphi. Conditions: not reported; mortality.
The subject of the next data set is Typhlodromus pyri. The data set can be described thus: LR50; higher = less toxic. Conditions: chronic/long-term; duration: 7 days; mortality.

Structures are written as SMILES. Several values for one entry are separate records, joined by “and”; a condition that tells them apart may be missing. Identical values can stand only once. A value given as a limit tells only on which side of the number the result lay.

In the case of `Cc1ccc(N(SC(F)(Cl)Cl)S(=O)(=O)N(C)C)cc1` [Tolylfluanid], the LC50 in the data set with Tagia sp. (acute, duration: 14 days, mortality) was over 1000 mg/kg; in the data set on Coturnix coturnix (acute, duration: 5 days, diet, mortality), over 5000 mg/kg; in the data set with Oncorhynchus mykiss (acute, duration: 96 hours, mortality), 0.045 µg/mL and 0.016 µg/mL. Also, the NOEC in the data set with Tagia sp. (chronic/long-term, reproduction) turned out to be 24000 g/ha; with Coturnix coturnix (reproduction developmental, duration: 21 weeks, diet), 791 mg/kg-day; in the data set with Rattus norvegicus (short-term, duration: 28 days, oral, diet), 1500 mg/kg-day; in the data set with Oncorhynchus mykiss (duration: 28 days) it was 44 µg/L; with Oncorhynchus mykiss (duration: 35 days), 60 µg/L. The LD50 is over 2000 mg/kg in the data set on Coturnix coturnix (acute, mortality); over 5000 mg/kg in the data set with Rattus norvegicus (acute, oral, mortality); over 196 µg/piece in the data set on Apis mellifera (duration: 48 hours, dermal); over 197 µg/piece with Apis mellifera (oral, unspecified). Besides, the NOAEL with Rattus norvegicus (reproduction developmental, M, body weight) came out at 12 mg/kg-day; in the data set on Canidae it was 33 mg/kg-day; in the data set on Oryctolagus sp., 25 mg/kg-day. Also, the values for the NOAEC with Daphnia magna (duration: 40 days) and in the data set with Daphnia magna (duration: 51 days) were 180 µg/L and 99 µg/L, respectively. For the same compound, the LEL with Aphidius rhopalosiphi was determined as 2500 g/ha. In addition, the LR50 with Typhlodromus pyri came out at 247 g/ha.

In general, NOAEL refers to the highest dose or exposure tested at which no adverse effect was seen.

These data come from EPA's ToxValDB 9.5 (doi:10.2903/j.efsa.2005.29r).
